For two compounds, Activity and ED50 results are on record in ChEMBL document CHEMBL1157978, “In vivo wound-healing activity of oleanolic acid derived from the acid hydrolysis of Anredera diffusa” (2006).

Holding throughout (type): functional
Assay [1] relates to Mus musculus. The assay is described as follows: Cicatrizant activity against mouse measured by wound breaking strength at 50 mg/ml administered every 12 hrs measured after 48 hrs relative to control.
Assay [2] concerns Mus musculus. Kind of assay: Cicatrizant activity against mouse assessed as wound breaking strength per gram of body weight administered every 12 hrs measured after 48 hrs relative to control.
In assay [3] the test system is Mus musculus. Kind of assay: Cicatrizant activity against mouse measured by wound breaking strength at 12.5 mg/ml administered every 12 hrs measured after 48 hrs relative to control.
Assay [4] has as its system Mus musculus. The assay is described as follows: Cicatrizant activity against mouse measured by wound breaking strength at 30 ug/g administered every 12 hrs measured after 48 hrs relative to control.
The subject of assay [5] is Mus musculus. The assay is described as follows: Cicatrizant activity against mouse measured by wound breaking strength at 40 ug/g administered every 12 hrs measured after 48 hrs relative to control.
The test system of assay [6] is Mus musculus. The assay is described as follows: Cicatrizant activity against mouse measured by wound breaking strength at 50 ug/g administered every 12 hrs measured after 48 hrs relative to control.
Assay [7] deals with Mus musculus. The assay is described as follows: Cicatrizant activity against mouse measured by wound breaking strength at 60 ug/g administered every 12 hrs measured after 48 hrs relative to control.

Take `CC(C)=CCC[C@@](C)(O)[C@@H]1CC=C(C)CC1`: the Activity with Mus musculus [1] is reported as 17.6%. In addition, the ED50 in the assay on Mus musculus [2] was 155 µg.

Consider `CC1(C)CC[C@]2(C(=O)O)CC[C@]3(C)C(=CC[C@@H]4[C@@]5(C)CC[C@H](O)C(C)(C)[C@@H]5CC[C@]43C)[C@@H]2C1` [OLEANOLIC_ACID], for which the Activity with Mus musculus [3] was 42.9%; in the assay on Mus musculus [4], 25.4%; with Mus musculus [5] it was 39.3%; with Mus musculus [6], 30.9%; in the assay with Mus musculus [7] it was 26.2%.
